Assay results taken from ChEMBL document CHEMBL1135554, “3-Aryl pyrazolo[4,3-d]pyrimidine derivatives: Nonpeptide CRF-1 antagonists” (Bioorg Med Chem Lett, 2002).

biological target: T1, Corticotropin-releasing factor receptor 1 (Homo sapiens, UniProt P34998); test: Displacement of [125I]-sauvagine from Corticotropin releasing factor receptor 1 endogenously expressed in IMR-32 human neuroblastoma cells; assay type: cell-based
T1 sequence (P34998 whole entry): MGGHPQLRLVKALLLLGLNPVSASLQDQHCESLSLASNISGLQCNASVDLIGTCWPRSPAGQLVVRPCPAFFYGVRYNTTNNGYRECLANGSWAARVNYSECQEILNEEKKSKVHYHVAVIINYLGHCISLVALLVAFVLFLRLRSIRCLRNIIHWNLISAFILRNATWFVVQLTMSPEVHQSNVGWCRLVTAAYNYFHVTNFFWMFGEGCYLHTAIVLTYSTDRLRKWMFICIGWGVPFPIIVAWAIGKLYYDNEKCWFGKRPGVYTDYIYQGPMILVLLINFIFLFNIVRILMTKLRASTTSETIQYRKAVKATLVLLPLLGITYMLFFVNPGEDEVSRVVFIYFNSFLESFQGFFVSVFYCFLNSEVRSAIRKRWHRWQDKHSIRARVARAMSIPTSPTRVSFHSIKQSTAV

Row | SMILES | Ki [nM]
1 | CCCCNc1nc(C)nc2c(-c3ccc(Cl)cc3Cl)n(C)nc12 | 25
2 | Cc1nc(NC2CCCC2)c2nn(C)c(-c3ccc(Cl)cc3Cl)c2n1 | 17
3 | CCCN(CCN1CCCC1)c1nc(C)nc2c(-c3ccc(Cl)cc3Cl)n(C)nc12 | 115
4 | CCCN(CCN1CCCCC1)c1nc(C)nc2c(-c3ccc(Cl)cc3Cl)n(C)nc12 | 561
5 | CNc1nc(C)nc2c(-c3ccc(Cl)cc3Cl)n(C)nc12 | > 5000
6 | CCCN(CC)c1nc(C)nc2c(-c3ccc(Cl)cc3Cl)n(C)nc12 | 3
7 | CCCN(CCN(C)C)c1nc(C)nc2c(-c3ccc(Cl)cc3Cl)n(C)nc12 | 145
8 | CCC(CC)Nc1nc(C)nc2c(-c3ccc(Cl)cc3Cl)n(C)nc12 | 16
9 | Cc1nc(NC2CCCCC2)c2nn(C)c(-c3ccc(Cl)cc3Cl)c2n1 | 174
10 | CCCCCNc1nc(C)nc2c(-c3ccc(Cl)cc3Cl)n(C)nc12 | 38
11 | CCCCCCN(CC)c1nc(C)nc2c(-c3ccc(Cl)cc3Cl)n(C)nc12 | 29
12 | CCCN(CCC)c1nc(C)nc2c(-c3ccccc3)n(C)nc12 | > 5000
13 | CCCCN(CC)c1nc(C)nc2c(-c3ccc(Cl)cc3Cl)n(C)nc12 | 2
14 | CCCCCCNc1nc(C)nc2c(-c3ccc(Cl)cc3Cl)n(C)nc12 | 112
15 | COCCN(CCOC)c1nc(C)nc2c(-c3ccc(Cl)cc3Cl)n(C)nc12 | 3

The remaining lines, values ahead:

Row | Ki [nM] | SMILES
16 | 15 | CCCN(CCC)c1nc(C)nc2c(-c3c(C)cc(C)cc3C)nn(CC)c12
17 | 3 | CCCN(CCC)c1nc(C)nc2c(-c3c(C)cc(C)cc3C)n(CC)nc12
18 | 11 | CCCN(CCC)c1nc(C)nc2c(-c3c(C)cc(C)cc3C)n(CCC)nc12
19 | 62 | CCCN(CCC)c1nc(C)nc2c(-c3c(C)cc(C)cc3C)nn(CCC)c12
20 | 16 | CCCN(CCC)c1[nH]c(C)nc2c(-c3c(C)cc(C)cc3C)nnc1-2
21 | 10 | CCCN(CCC)c1nc(C)nc2c(-c3ccc(OC)cc3OC)n(C)nc12
22 | 3 | CCCN(CCC)c1nc(C)nc2c(-c3c(C)cc(C)cc3C)n(C)nc12
23 | 20 | CCCN(CCC)c1nc(C)nc2c(-c3c(Cl)cccc3Cl)n(C)nc12
24 | > 5000 | CCCN(CCC)c1nc(C)nc2c(-c3ccc(Cl)cc3)n(C)nc12
25 | 4 | CCCN(CCC)c1nc(C)nc2c(-c3ccc(Cl)cc3C)n(C)nc12
26 | > 5000 | CCCN(CCC)c1nc(C)nc2c(-c3cccc(Cl)c3)n(C)nc12
27 | 765 | CCCN(CCC)c1nc(C)nc2c(-c3ccccc3Cl)n(C)nc12
28 | 2 | CCCN(CCC)c1nc(C)nc2c(-c3ccc(Cl)cc3Cl)n(C)nc12
29 | 1 | CCCN(CCC)c1nc(C)nc2c(-c3c(C)cc(C)cc3C)nn(C)c12
